According to PubChem BioAssay (NCI):
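Where inhibition never reached the appropriate level, the endpoint shown equals the highest concentration tested. Otherwise, values were interpolated linearly from a five-concentration, 48-hour dose response in 96-well plates. The concentration for full growth arrest is given as TGI.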

Columns and labels:
Assay in all cases: inhibition of tumour cell growth, NCI panel, 48 h
UACC-257 melanoma = system: UACC-257 melanoma
U251 CNS = system: U251 CNS
CCRF-CEM leukemia = system: CCRF-CEM leukemia
EKVX NSCLC = system: EKVX NSCLC
HOP-62 NSCLC = system: HOP-62 NSCLC
SK-MEL-5 melanoma = system: SK-MEL-5 melanoma
MCF7 breast = system: MCF7 breast
OVCAR-5 ovarian = system: OVCAR-5 ovarian
HCT-116 colon = system: HCT-116 colon
SNB-75 CNS = system: SNB-75 CNS
SK-OV-3 ovarian = system: SK-OV-3 ovarian
UO-31 renal = system: UO-31 renal
OVCAR-3 ovarian = system: OVCAR-3 ovarian

| Compound | TGI (UACC-257 melanoma) [µM] | TGI (U251 CNS) [µM] | TGI (CCRF-CEM leukemia) [µM] | TGI (EKVX NSCLC) [µM] | TGI (HOP-62 NSCLC) [µM] | TGI (SK-MEL-5 melanoma) [µM] | TGI (MCF7 breast) [µM] | TGI (OVCAR-5 ovarian) [µM] | TGI (HCT-116 colon) [µM] | TGI (SNB-75 CNS) [µM] | TGI (SK-OV-3 ovarian) [µM] | TGI (UO-31 renal) [µM] | TGI (OVCAR-3 ovarian) [µM] |
| --- | --- | --- | --- | --- | --- | --- | --- | --- | --- | --- | --- | --- | --- |
| O=c1c[n+](-c2ccccc2)[nH]o1 | > 100 | > 100 | > 100 | > 100 | > 100 | > 100 | > 100 | > 100 | > 100 | > 100 | > 100 | > 100 | > 100 |
| COc1ccc(-c2oc3cc(OC)c(OC)c(OC)c3c(=O)c2OC)cc1OC | > 100 | > 100 | > 100 | > 100 | > 100 | > 100 | > 100 | > 100 | > 100 | > 100 | > 100 | > 100 | > 100 |
| O=C1OC2c3ccccc3C(=O)C2(c2ccccc2)N1c1ccccc1 (stereo not drawn) | > 200 | > 200 | > 200 | > 200 | > 200 | > 200 | > 200 | > 200 | > 200 | > 200 | > 200 | > 200 | > 200 |
| C=CCOC(=O)CCCCCCCCCCCCCCCOC(=O)c1c(CCC[C@@H](C)O[Si](C)(C)C(C)(C)C)nc(=O)n2c1CC[C@H]2CC1(CC/C=C\[C@H](CC)O[Si](C(C)C)(C(C)C)C(C)C)OCCO1 | > 100 | 31.8 | > 100 | > 100 | > 100 | 46.8 | > 100 | > 100 | > 100 | > 100 | > 100 | 61.3 | > 100 |
| N#CC(C#N)=Cc1ccc(C=C2SC3=C(SCCS3)S2)s1 | > 100 | > 100 | > 100 | > 100 | > 100 | > 100 | > 100 | 35.2 | > 100 | 94 | > 100 | > 100 | > 100 |
| COCC(=O)OC1CCn2c1nc1c2C(=O)C(C)=C(NC(C)=O)C1=N (stereo not drawn) | 8.23 | 17.9 | 8.27 | 25.3 | 29.2 | 5.92 | 3.52 | 25.3 | 11.4 | 29 | 37.5 | 24 | 5.85 |
| NC1=NN(c2ccccc2)C2(c3ccncc3C(=O)O)C1C(N)=NN2c1ccccc1 (stereo not drawn) | > 100 | > 100 | > 100 | > 100 | – | > 100 | > 100 | > 100 | > 100 | > 100 | > 100 | > 100 | > 100 |
| CC(C)/C(Cl)=N\OC(=O)Nc1ccc(F)c([N+](=O)[O-])c1 | 33.5 | 31.1 | – | 26.5 | 32 | 22.4 | > 58.1 | 42.8 | 11.7 | 27.2 | 34 | 17.9 | 27.2 |
| O=C1NC(N/N=C/c2ccccc2)=N/C1=C\c1cccs1 | > 100 | 32.8 | > 75.8 | 47.3 | 37.8 | 20.7 | 46.5 | 70.8 | 36.3 | 51.8 | 39.1 | 48.7 | 33.9 |
| CC(C)CCNC(=O)c1ccc(CNC(=O)/C=C/c2csc(-c3ccccc3)n2)cc1 | > 100 | 96.8 | > 100 | > 100 | 37.4 | > 100 | > 100 | > 100 | > 100 | 41.8 | > 100 | 58.6 | > 100 |
| c1cc2cc(c1)CN1CCNCCN(CCNCC1)Cc1cccc(c1)CN1CCNCCN(CCNCC1)C2 | > 100 | > 100 | – | > 100 | > 100 | > 100 | > 100 | > 100 | > 100 | > 100 | > 100 | > 100 | > 100 |
| OCCCCn1cc(Cn2ncc3c(SCc4ccccc4)ncnc32)nn1 | > 100 | > 100 | > 100 | > 100 | > 100 | 54.5 | > 100 | > 100 | > 100 | > 100 | > 100 | > 100 | > 100 |
| CCCC(=O)/C=C/S/C=C/C(=O)CCC | – | 66.2 | – | 10.6 | 42.6 | 16.1 | > 100 | 9.69 | – | 83.6 | > 100 | > 100 | 18.7 |
| CN(C)CCCNC(=O)c1cc(NC(=O)c2cc(NC(=O)[C@H]3C[C@@H]3C(=O)Nc3cc(C(=O)Nc4cc(C(=O)NCCCN(C)C)n(C)c4)n(C)c3)cn2C)cn1C | > 100 | > 100 | > 100 | > 100 | > 100 | > 100 | > 100 | > 100 | > 100 | > 100 | – | – | – |
| CCN(CC)c1nc(N(C)C)c2ccc(OC)cc2n1 | 28.1 | 71.8 | – | 21.8 | 76.7 | 24.7 | 25 | > 100 | 20.1 | 66.6 | 52.5 | – | – |
| COc1ccc(/C=C(\C(=O)OCC(C)C)c2ccc(OC)c(OC)c2)cc1OC | > 100 | > 100 | > 100 | > 100 | > 100 | > 100 | > 100 | > 100 | > 100 | > 100 | – | > 100 | > 100 |
| COc1ccc(C(=O)/C=C/c2ccc(OCC(=O)O)cc2)cc1 | – | 79.9 | > 100 | > 100 | > 100 | > 100 | > 100 | > 100 | > 100 | > 100 | – | > 100 | > 100 |
| CC(=O)O[C@H]1[C@H](OC(C)=O)[C@@H](CN=[N+]=[N-])OCO[C@@H]1CN=[N+]=[N-] | > 100 | > 100 | > 100 | > 100 | > 100 | > 100 | > 100 | > 100 | > 100 | > 100 | > 100 | – | – |
| C[N+](C)(C)C1(C(=O)[O-])CC1 | > 100 | > 100 | > 100 | > 100 | > 100 | > 100 | > 100 | > 100 | > 100 | > 100 | – | – | > 100 |
| CC(=O)OCC1OC(n2c3c(cc(C#N)c2=S)CCCCCC3)C(OC(C)=O)C(OC(C)=O)C1OC(C)=O (stereo not drawn) | > 100 | > 100 | > 100 | – | > 100 | > 100 | > 100 | > 100 | > 100 | > 100 | – | > 100 | > 100 |
| O=C(N/N=C/C=C/c1ccc([N+](=O)[O-])o1)c1ccc(Br)s1 | – | > 100 | > 100 | 95.9 | > 100 | 46.1 | > 100 | 59.7 | 13.3 | > 100 | > 100 | 48.9 | 41.7 |
| CC1C2(C)OC(=N)C(C#N)(C(c3ccco3)O2)C1(C#N)C#N (stereo not drawn) | 51.9 | 51.5 | 84.4 | > 100 | – | 28.1 | 51.4 | 83.6 | 67.1 | > 100 | > 100 | > 100 | 47.9 |
| COC(=O)c1cc(-c2ccc(-c3ccc(O)cc3)cc2)cc(-c2ccc(-c3ccc(O)cc3)cc2)c1 | 33.3 | – | 31.2 | 25.2 | 27.7 | 30.7 | 25.9 | 29.1 | 17.9 | 27.8 | 29.6 | 23.6 | 25.6 |
| O=C(O)CSc1nnc(CCCCCCCCc2nnc(SCC(=O)O)o2)o1 | > 100 | > 100 | > 100 | > 100 | > 100 | > 100 | > 100 | > 100 | > 100 | 73.1 | > 100 | > 100 | – |
| O=C1/C(=C/c2ccc(Cl)cc2)N=C(c2ccccc2)N1C1Nc2cc3c(cc2S1)NC(N1C(=O)/C(=C/c2ccc(Cl)cc2)N=C1c1ccccc1)S3 (stereo not drawn) | > 100 | > 100 | > 100 | > 100 | > 100 | > 100 | > 100 | > 100 | > 100 | – | > 100 | > 100 | > 100 |
| NC(N)=NS(=O)(=O)c1ccc(Nc2c3ccccc3nc3c(C(=O)NC(CO)(CO)CO)cccc23)cc1 | > 100 | > 100 | 54.8 | > 100 | 87.4 | 57.5 | 95.3 | 65.4 | – | 18.7 | > 100 | 95.2 | > 100 |
| COc1cc(CNC(=O)[C@H](Cc2ccc(O)cn2)NC(C)=O)cc(OC)c1 | > 100 | > 100 | > 100 | > 100 | > 100 | > 100 | > 100 | > 100 | > 100 | – | > 100 | > 100 | > 100 |
